{
  "source": "patent US4322346A",
  "about": "“5H-2,3-Benzodiazepine derivatives” (priority 1978, dated 1982)",
  "assay_type_in_all_cases": "in vivo",
  "key": {"[1]": {"test_system": "mice", "test": "General behaviour of mice", "conditions": "100 mg/kg i.p. and, resp., 200 mg/kg p.o., SMA = spontaneous motor activity", "description": "These compounds decrease the spontaneous motor activity and potentiate the effect of narcotics.\n(§1) The tests were performed on mice. In the examination of the general behaviour the animals were treated intraperitoneally with 100 mg/kg or orally with 200 mg/kg of the compound in question. The fighting behaviour test was performed according to the method of Tedeschi et al. (J. Pharm. Exp. Ther. 25, 28 /1959/). The observations concerning the general behaviour of the animals and the ED50 values obtained in the fighting behaviour test are summarized in Table 1. In these tests 1-(3,4-dimethoxyphenyl)-4-methyl-5-ethyl-7,8-dimethoxy-5H-2,3-benzodiazepine (Grandaxin) was applied as reference substance."}, "[2]": {"test_system": "mice", "test": "Narcosis potentiating activity on mice (sodium hexobarbital narcosis)", "conditions": "for Narcosis potentiating activity on mice, Relative activity: relative to Grandaxin (1.0)", "description": "When studying the narcosis potentiating effect, the benzodiazepine compounds were administered to mice in oral dosages of 12.5, 25, 50 or 100 mg/kg, and 30 minutes later 50 mg/kg of sodium hexobarbital were injected intravenously into the animals. The percentage prolongation of the narcosis period, compared to the value observed in the control group treated with sodium hexobarbital alone, was calculated. In these tests Grandaxin was applied again as reference substance."}, "[3]": {"test_system": "mice", "test": "Fighting behaviour test on mice (method of Tedeschi et al.)", "description": "as §1"}},
  "data": [
    {"molecule": "CCC1C(C)=NN=C(c2ccc(OC)c(OC)c2)c2cc(OC)c(OC)cc21", "note": "(centres unmarked) [Grandaxin, 1-(3,4-dimethoxyphenyl)-4-methyl-5-ethyl-7,8-dimethoxy-5H-2,3-benzodiazepine, reference compound]", "values": [
      {"measurement": "General behaviour", "setting": "[1]", "value": "Decrease of SMA"},
      {"measurement": "Narcosis potentiating activity on mice, Relative activity", "setting": "[2]; 12.5 mg/kg p.o.", "value": 1.0},
      {"measurement": "Narcosis potentiating activity on mice, Relative activity", "setting": "[2]; 25 mg/kg p.o.", "value": 1.0},
      {"measurement": "Narcosis potentiating activity on mice, Relative activity", "setting": "[2]; 50 mg/kg p.o.", "value": 1.0},
      {"measurement": "Narcosis potentiating activity on mice, Relative activity", "setting": "[2]; 100 mg/kg p.o.", "value": 1.0},
      {"measurement": "change in vivo at 12.5 mg/kg", "setting": "[2]; Mus musculus, po, 12.5 mg/kg p.o., 30 minutes before 50 mg/kg sodium hexobarbital i.v., prolongation vs control, read-out: Narcosis potentiating activity on mice, Increase, %", "value": 17, "unit": "%"},
      {"measurement": "change in vivo at 25 mg/kg", "setting": "[2]; Mus musculus, po, 25 mg/kg p.o., 30 minutes before 50 mg/kg sodium hexobarbital i.v., prolongation vs control, read-out: Narcosis potentiating activity on mice, Increase, %", "value": 81, "unit": "%"},
      {"measurement": "change in vivo at 50 mg/kg", "setting": "[2]; Mus musculus, po, 50 mg/kg p.o., 30 minutes before 50 mg/kg sodium hexobarbital i.v., prolongation vs control, read-out: Narcosis potentiating activity on mice, Increase, %", "value": 114, "unit": "%"},
      {"measurement": "change in vivo at 100 mg/kg", "setting": "[2]; Mus musculus, po, 100 mg/kg p.o., 30 minutes before 50 mg/kg sodium hexobarbital i.v., prolongation vs control, read-out: Narcosis potentiating activity on mice, Increase, %", "value": 239, "unit": "%"},
      {"measurement": "ED50", "setting": "[3]; Mus musculus, po, mice", "value": 64, "unit": "mg/kg"},
      {"measurement": "\"Fighting behaviour\" test on mice, relative activity", "setting": "[3]; relative to Grandaxin (1.0), from ED50 p.o.", "value": 1.0}
    ]}
  ]
}
